SMILES strings stand for the structures.

The data set in a line: Human HepG2 cell viability assay in 384 well format. It is filed as toxicity, cell-based. Further details: dose 125 nL, time 70.5 hour; cytotoxicity at 70.5 h: concentration not given beside the values. The conditions noted are these: HepG2 cells, read-out: Inhibition.
As to `CC(=O)NCCNC(=O)Nc1ccc(C)cc1OCc1ccccc1`, the cytotoxicity at 70.5 h is -1.2%.
Next, `Cc1cc(C)cc(C(=O)NCCCC2(C3OCCO3)CCOCC2)c1`: 1.06%; `O=C(CCc1nccs1)N1CCC(C(=O)O)(c2ccccc2)CC1`: -0.696%.
As for `CCN(CC)S(=O)(=O)CCNc1ncnc2cc(F)c(F)cc12`, the cytotoxicity at 70.5 h was -1.89%.
On to `Cc1nc(CNC(=O)Nc2ccc3c(c2)CCCC(=O)N3)sc1C`, for which the cytotoxicity at 70.5 h is -0.115%.
Consider `N#Cc1ccc(NCCCN2C(=O)COc3ccccc32)nc1`, for which the cytotoxicity at 70.5 h is -1.32%.
As for `Cc1nc(CNC(=O)Nc2ccc3c(c2)CCCN3C)sc1C`, the cytotoxicity at 70.5 h is -0.336%.
For `COc1cccc(C2(NC(=O)CCNC(C)=O)CC2)c1`, the cytotoxicity at 70.5 h worked out at 5.65%.
As to `COc1c(NC(=O)N(C)CCOc2ccc(F)cc2)c(C)nn1C`, the cytotoxicity at 70.5 h was found to be 2.48%.
Next, `Cc1noc(C)c1Cn1cc(I)cc(C)c1=O`: 4.77%; `CN1C(=O)CCN(C(=O)C2CC=CC2)c2ccccc21`: 1.54%.
As to `COc1cccc(-c2n[nH]cc2CNCC2CCS(=O)(=O)C2)c1` (stereo unspecified), the cytotoxicity at 70.5 h was determined as 0.998%.
In the case of `O=C(CCCc1ccccn1)N1CCOc2ccc(F)cc21`, the cytotoxicity at 70.5 h stood at 1.36%.
For `FC(F)(F)c1nnc2n1CCN(c1nc(C3CC3)ns1)C2` the value was -1.08%; for `COCCC(=O)NCCCOC1CCCc2ccccc21` (stereo unspecified), 1.55%; for `Cn1cc(C2CCCN2C(=O)CCn2ccc3ccccc32)cn1` (stereo unspecified), 3.44%.
Next, `COc1cccc(COCC(O)CN(C)c2ccc(C)cc2C)c1` (stereo unspecified): -0.324%; `Cn1cc(C2CCCN2C(=O)Cn2ccc3ccccc32)cn1` (stereo unspecified): -0.47%; `Cc1ccc(N(C)CC(O)COCc2ccccc2F)c(C)c1` (stereo unspecified): -0.728%.
Consider `COc1c(CNCCC(=O)Nc2cccc(C)n2)c(C)nn1C`, for which the cytotoxicity at 70.5 h was -1.12%.
On to `CC(C)N(Cc1cccnc1)C(=O)CCSc1ccc(C#N)cc1`, for which the cytotoxicity at 70.5 h was 5.31%.
Next, `CCCc1cc(NC(=O)c2cc(N3CCNC3=O)c(F)cc2F)n[nH]1`: 1.56%; `Cc1cc(CS(=O)(=O)CC(=O)N2c3ccccc3CC2C)no1` (stereo unspecified): -0.335%.
Take `Cc1noc(C)c1CS(=O)(=O)CC(=O)N1c2ccccc2CC1C` (stereo unspecified): the cytotoxicity at 70.5 h is -12%.
For `CN(C)C(CNCc1nc(-c2ccsc2)no1)c1cccs1` (stereo unspecified) the value was -8.94%.
Consider `Cc1cc(C)c(CNc2ncnc3c2cnn3C)c(=O)[nH]1`, for which the cytotoxicity at 70.5 h is -11.1%.
Consider `CC(C)N(Cc1cccnc1)C(=O)CNc1ccc(C#N)cc1`, for which the cytotoxicity at 70.5 h was -12.5%.
Turning to `N#Cc1ccc(OC2CCN(CC(=O)NCC3CCCO3)CC2)cc1` (stereo unspecified), the cytotoxicity at 70.5 h was -5%.
`O=C(CCCNC(=O)Nc1ccc(F)cc1)Nc1cn[nH]c1`: the cytotoxicity at 70.5 h was -7.73%.
For `CCCc1cc(NC(=O)c2ccc(Cl)c(N3CCNC3=O)c2)n[nH]1` the value was 11.9%.
Turning to `CS(=O)(=O)c1nccn1Cc1ccc(F)cc1Cl`, the cytotoxicity at 70.5 h is -6.78%.
`CC(Nc1ccc(Oc2cccc(C#N)c2)cc1)C(=O)NC1CC1` (stereo unspecified): the cytotoxicity at 70.5 h is -3.83%.
Next, `CNS(=O)(=O)c1cc(C(=O)N(C)Cc2sccc2C)c(C)o1`: -5.52%; `CC1CN(Cc2ccccc2)CCCN1CCCS(C)(=O)=O` (stereo unspecified): -4.81%.
For `COc1ccc(S(=O)(=O)Cc2noc(CC(C)C)n2)cc1`, the cytotoxicity at 70.5 h came to 5.74%.
As for `Cc1ccc(N2CCc3ncnc(C)c3CC2)nn1`, the cytotoxicity at 70.5 h was 18.8%.
Consider `O=C(NC[C@@H]1C[C@@H]2CN(C(=O)CO)C[C@H]2O1)c1ccsc1`, for which the cytotoxicity at 70.5 h was 21%.
Consider `O=C(NCC1CC2(CO1)CN(c1ncccn1)C2)C1CCC1` (stereo unspecified), for which the cytotoxicity at 70.5 h worked out at 2.73%.
Consider `COc1cc(N2CC[C@@H]3[C@@H](CC2)OCCN3CC2CC2)ncn1`, for which the cytotoxicity at 70.5 h is -4.1%.
Take `Cn1cc(CN2C[C@H]3CCC[C@@]3(COc3cccnc3)C2)cn1`: the cytotoxicity at 70.5 h was -2.32%.
`CCN(CC)c1ncnc2c1CCN(c1ccc(C)nn1)CC2`: the cytotoxicity at 70.5 h is -1.7%.
In the case of `Cn1cccc1C(=O)NC[C@H]1C[C@@H]2CN(C(=O)c3ccco3)C[C@@H]2O1`, the cytotoxicity at 70.5 h is -1.72%.
Consider `CCN(C)c1ncnc2c1CCN(c1ccc(C)nn1)CC2`, for which the cytotoxicity at 70.5 h was -2.59%.
For `O=C(c1ccco1)N1CCCC2(C1)CN(c1nncs1)CCO2` (stereo unspecified) the value was -5.17%.
As to `Cc1cc(CN2CC[C@H]3C[C@@H](c4nc(C5CC5)cs4)O[C@@H]3C2)no1`, the cytotoxicity at 70.5 h was -2.95%.
Consider `CC1N(c2cnn(C)c2)C(=O)COC12CCN(Cc1ccoc1)CC2` (stereo unspecified), for which the cytotoxicity at 70.5 h is 2.62%.
On to `O=S(=O)(C1CC1)N1CCCn2nnc(Cn3cccc3)c2C1`, for which the cytotoxicity at 70.5 h was -8.69%.
Turning to `CCS(=O)(=O)N1CCCn2nnc(Cn3cccc3)c2C1`, the cytotoxicity at 70.5 h is -5.99%.
For the compound `CCN1CC2(CC1=O)CN(C(C)=O)CCN(C(=O)NC(C)C)C2` (stereo unspecified), the cytotoxicity at 70.5 h is -8.93%.
Turning to `CCn1nc(C)cc1C(=O)N1C[C@@H]2C[C@@H](c3nnc(C)[nH]3)O[C@@H]2C1`, the cytotoxicity at 70.5 h is -12.7%.
On to `Cc1nc(CN2CCN(C)C(=O)C23CCN(CC2CCCC2)CC3)cs1`, for which the cytotoxicity at 70.5 h was -9.21%.
Turning to `Cc1ccc(N2C[C@@H]3OCCN(Cc4c(C)noc4C)[C@@H]3C2)nn1`, the cytotoxicity at 70.5 h was -1.63%.
Next, `CC(=O)N1CCn2c(C(=O)N(C)C)cnc2C1`: -29.5%.
For `CN1CC2(CCN(C(=O)c3cccnc3)CC2)c2cccc(F)c21` the value was -0.505%; for `COCCN1CC2(CCOCC2)c2cc(NC(=O)C3CC=CC3)ccc21`, 28.4%; for `CCN1C(=O)CC[C@]12CC[C@@H](NC(=O)NCc1cccnc1)CC2`, -4.88%.
For `CN1C(=O)CC[C@]12CC[C@@H](NC(=O)NCc1cccnc1)CC2` the value was -4%; for `O=C(NCc1cccnc1)N[C@H]1CC[C@@]2(CCC(=O)N2CC2CC2)CC1`, 8.65%.
Take `O=C(NCCc1cccnc1)c1nc2c(s1)CCCN2C(=O)C1CC1`: the cytotoxicity at 70.5 h is -7.13%.
On to `COCC1c2c(cnn2C)CCN1C(=O)c1cscn1` (stereo unspecified), for which the cytotoxicity at 70.5 h is -1.37%.
For `Cc1nc(CNCC2Cn3nncc3CO2)cs1` (stereo unspecified) the value was -2.11%; for `Cc1noc(C)c1CNCC1Cn2nncc2CO1` (stereo unspecified), -2.84%.
Consider `O=C1CC[C@H]2[C@H](CCN2S(=O)(=O)C2CC2)N1CCN1CCCC1`, for which the cytotoxicity at 70.5 h was 25.5%.
`Cn1cccc1C(=O)N[C@H]1CN(Cc2ccoc2)[C@@H]2CCCO[C@H]12`: the cytotoxicity at 70.5 h is 17.5%.
Consider `c1cnc(N2CCO[C@H]3CN(CC4CCOC4)C[C@H]32)cn1` (stereo partly specified), for which the cytotoxicity at 70.5 h is -2.13%.
Turning to `CCC(=O)N1CCC2(CC1)C(c1cccnc1)CC(=O)N2CCOC` (stereo unspecified), the cytotoxicity at 70.5 h was found to be 1.53%.
For `COc1ccccc1CN1C[C@@H]2CN(C(C)=O)CCO[C@@H]2C1` the value was -1.68%.
Consider `CC(=O)N1CCO[C@@H]2CN(Cc3ccccc3F)C[C@@H]2C1`, for which the cytotoxicity at 70.5 h was -5.88%.
For `O=C(c1ccccc1F)N1CCC2(CC1)CC(Oc1ccccn1)CO2` (stereo unspecified) the value was -4.93%; for `O=C(c1ccco1)N1CCCC2(CCN(c3nncs3)C2)C1` (stereo unspecified), -5.1%.
For `COCCN1CCCCC12CC(=O)N(c1ccccc1OC)C2` (stereo unspecified), the cytotoxicity at 70.5 h was -2.67%.
Consider `CC1N(c2cnn(C)c2)C(=O)COC12CCN(Cc1ccco1)CC2` (stereo unspecified), for which the cytotoxicity at 70.5 h is -3.36%.
Consider `CC1N(c2cnn(C)c2)C(=O)COC12CCN(c1ncccn1)CC2` (stereo unspecified), for which the cytotoxicity at 70.5 h was -1.11%.
As for `COc1cccc(CC(=O)N2CC[C@@H](OC)[C@@H]2Cc2cccnc2)c1`, the cytotoxicity at 70.5 h was -4.93%.
For `COc1ccc(CC(=O)N2CC[C@@H](OC)[C@@H]2Cc2cccnc2)cc1` the value was -4.94%.
For the compound `O=C1CCCN1Cc1nnn2c1CN(c1cccnc1)CCC2`, the cytotoxicity at 70.5 h is -8.56%.
On to `c1cncc(N2CCCn3nnc(COCC4CC4)c3C2)c1`, for which the cytotoxicity at 70.5 h is -7.98%.
Turning to `CCn1nc(C)cc1C(=O)N1C[C@@H]2C[C@@H](C)O[C@@H]2C1`, the cytotoxicity at 70.5 h was -7.68%.
Turning to `Cn1ccnc1CN1CCC2(CC1)COC2`, the cytotoxicity at 70.5 h was -7.76%.
`Fc1cccc(CN2CCC3(CCCN3c3ncccn3)CC2)c1`: the cytotoxicity at 70.5 h stood at 5.31%.
For `CS(=O)(=O)N1CCOCC2(CCN(Cc3ccoc3)CC2)C1`, the cytotoxicity at 70.5 h was -3.92%.
As for `COc1ncccc1CN1CCC2(CC1)CC(OCC1CC1)CO2` (stereo unspecified), the cytotoxicity at 70.5 h was -4.27%.
Take `Cc1noc(C)c1CN1CC[C@H]2[C@@H]1CCC(=O)N2CC1CCOCC1`: the cytotoxicity at 70.5 h is -3.53%.
For `CCN1C[C@@H]2[C@@H](OC)CCN(S(=O)(=O)c3ccccc3)[C@@H]2C1`, the cytotoxicity at 70.5 h turned out to be 3.99%.
As to `Cc1cccc(CN2CCN3C[C@H](Oc4cncnc4)C[C@H]3C2)n1`, the cytotoxicity at 70.5 h is -0.54%.
Next, `c1ccc(CN2CCN3C[C@H](Oc4cncnc4)C[C@H]3C2)nc1`: -3.2%; `c1cncc(CN2Cc3nccn3CC(Cn3cccn3)C2)c1` (stereo unspecified): -6.13%; `c1cncc(N2CCCn3nnc(CN4CCCCC4)c3C2)c1`: -0.156%.
Consider `Cc1ccc(CN2CC[C@@H]3O[C@@H](C(=O)N4CCN(C)CC4)C[C@@H]32)cc1`, for which the cytotoxicity at 70.5 h was -1.43%.
As for `Cc1noc(C)c1CN1CC[C@H]2[C@H]1CCN2CC1CCOCC1`, the cytotoxicity at 70.5 h is -5.25%.
As to `C[C@H]1CN(c2ccccn2)C[C@@]12CCN(Cc1cccnc1)C2=O`, the cytotoxicity at 70.5 h was -0.624%.
For `Cn1cnc2c1C(COCC1CCOCC1)CN(C1CCOCC1)C2` (stereo unspecified) the value was -25.6%; for `CCn1cc2c(n1)CN(Cc1ccncc1)CC2COCC1CC1` (stereo unspecified), -17.6%; for `COCC1CC2(CCN(Cc3nccs3)CC2)CN1Cc1ccccn1` (stereo unspecified), 9.76%.
In the case of `CN(C)CCN1CCCC12CCN(Cc1nccn1C)CC2`, the cytotoxicity at 70.5 h was -0.128%.
Take `CO[C@H]1CCN(Cc2cccs2)[C@@H]2CN(Cc3ccncc3)C[C@H]12`: the cytotoxicity at 70.5 h was -2.84%.
